Results on one substance are retold here after patent US20230304010A1, “COMPOSITIONS AND METHODS FOR TREATING VIRAL INFECTIONS” (priority 2020, published 2023).

Ends that are not written are not given here.

Assay [1] relates to SARS-CoV-2 variants (Alpha/Beta/Delta). Type of assay: cell-based.
The subject of assay [2] is ACE2 : SARS-CoV-2 Spike Gamma (P1/Brazil) variant. Format: binding.
In assay [3] the test system is ACE2 : SARS-CoV-2 Spike Delta (B1 617 2/India) variant. Format: binding. The note with it: read-out: IC50, Delta (B1617).
Assay [4] relates to ACE2 : SARS-CoV-2 Spike Epsilon (B1429) variant. Format: binding.
Assay [5] has as its system ACE2 : SARS-CoV-2 Spike Beta (B1.351/South Africa) variant. Format: binding. The note with it: read-out: IC50, Beta (B1312).
Assay [6] has as its system ACE2 : SARS-CoV-2 Spike Alpha (B1.1.7/United Kingdom) variant. Type of assay: binding. The note with it: read-out: IC50, Alpha (B117).

Consider “Ac-KTFLDKFNHEAEDLFPGPKWSAFLKEQSTLAQMYG [Seq28]”, for which the “fold stronger anti-SARS-CoV-2 activity than Remdesivir” value in assay [1] is reported as 200 fold. In addition, the IC50 in assay [2] stood at 41.7 ± 11 nM; in assay [3], 29.2 ± 11 nM; in assay [4] it was 28.8 ± 7 nM; in assay [5] it was 31.5 ± 5 nM; in assay [6], 24.6 ± 11 nM.
